Test: In vitro release of Rg3 by the dialysis method
Assay type: physicochemical
Details: after 24 hours, PBS pH 7.4, 37° C.
Description: To estimate the Rg3-loaded nanoniosome's in vitro drug release profile, 1 mL of the formulation was placed inside a dialysis bag and then immersed in a PBS solution (maintained at 37° C. and a pH of 7.4) with constant stirring. The PBS solution surrounding the dialysis bag (which contained released Rg3) was extracted at different time intervals for 24 hours, and the absorbance intensity was measured at 203 nm. The quantity of Rg3 measured in the medium is divided by the starting amount of Rg3 in the formulation to determine the amount of Rg3 released.

Compound: CC(C)=CCC[C@](C)(O)[C@H]1CC[C@]2(C)[C@@H]1[C@H](O)C[C@@H]1[C@@]3(C)CC[C@H](O[C@@H]4O[C@H](CO)[C@@H](O)[C@H](O)[C@H]4O[C@@H]4O[C@H](CO)[C@@H](O)[C@H](O)[C@H]4O)C(C)(C)[C@@H]3CC[C@]12C [Ginsenoside Rg3]
- release of the loaded drug: 24.78%

— patent US20250041236A1, “METHOD FOR SYNTHESIZING GINSENOSIDE RG3-LOADED NANONIOSOMES” (priority 2024, published 2025)
